Data on 7 molecules can be found in patent US8575193B2, “N-substituted tetrahydroisoquinoline/isoindoline hydroxamic acid compounds” (4SC AG, priority 2008, dated 2013).

The target of series [1] is T1, rHDAC1 (Homo sapiens, UniProt Q13547).
T1 construct: FLAG; made in house
Kind of series: rHDAC1 enzymatic assay (recombinant FLAG-HDAC1). Type of series: biochemical. The following applies: FLAG-HDAC1 from HEK293; 6 μM Ac-NH-GGK(Ac)-AMC, 3 h at 30° C.; read-out: rHDAC1 [pIC50] (converted). From the text: (§1) Human HDAC1 and HDAC6 fused with the FLAG epitope are stably expressed in HEK293 cells while human HDAC3 and HDAC8 fused with the FLAG epitope are overexpressed in baculo-virus infected insect (Sf21) cells. To ensure stability of FLAG-HDAC3 the SMRT protein is co-expressed in the corresponding insect cells. […] FLAG-HDAC3 and FLAG-HDAC8 are also purified by M2-agarose affinity chromatography after mass cultivation of the insect cells and cell lysis.
(§2) The HDAC enzyme activity assay is done as described by Wegener et al. (Chem. & Biol. 10, 61-68, 2003). Briefly 40 μl of a 1:100 dilution (=0.4 μl) nuclear HeLa extract (mixture of class I and II HDACs), 29 μl enzyme buffer (15 mM Tris HCl pH 8.1, 0.25 mM EDTA, 250 mM NaCl, 10% v:v glycerol) and 1 μl test compound are added to a well of a 96 well microtiter plate and reaction started by addition of 3 μl substrate (Ac-NH-GGK(Ac)-AMC; final concentration 25 μM and final volume […]). […] After incubation at room temperature for further 40 min, fluorescence is measured using a Wallac Victor 1420 multilabel counter (Ex 355 nm, Em 460 nm) for quantification of AMC (7-amino-4-methylcoumarin) generated by trypsine cleavage of the deacetylated peptide. […] The corresponding pIC50 values of the compounds for HDAC inhibitory activity are determined from the concentration-effect curves by means of non-linear regression (Graphpad Prism software).
(§3) The HDAC1, HDAC3 and HDAC6 enzymatic assays are done with slight modifications with recombinant FLAG-HDAC1 and FLAG-HDAC6 proteins isolated from HEK293 cell lysates or recombinant FLAG-HDAC3 isolated from insect cells, respectively. The HDAC8 enzymatic assay using recombinant FLAG-HDAC8 isolated from insect cells is done with a different substrate. About 4.5 ng/well FLAG-HDAC1 and 3.1 ng/well FLAG-HDAC6 (dependent on batches and specific activity) are incubated with 6 μM or 10 μM Ac-NH-GGK(Ac)-AMC substrate, respectively, for 3 h at 30° C. About 1.7 ng/well FLAG-HDAC3 is incubated with 6 μM Ac-NH-GGK(Ac)-AMC substrate for 2 h at 30° C., while approximately 130 ng/well FLAG-HDAC8 is incubated with 50 μM Ac-RHK(Ac)K(Ac)-AMC substrate for 3 h at 30° C. Termination of the reaction and all further steps are done as described for HeLa cell nuclear extracts as a source for HDAC enzymatic activity. The corresponding pIC50 values of the compounds for HDAC1, HDAC3, HDAC6 and HDAC8 inhibitory activity are determined from the concentration-effect curves by means of non-linear regression.

In series [2] the target is T2, rHDAC6 (Homo sapiens, UniProt Q9UBN7).
T2 construct: FLAG; made in house
T2 sequence (Q9UBN7 1-1215): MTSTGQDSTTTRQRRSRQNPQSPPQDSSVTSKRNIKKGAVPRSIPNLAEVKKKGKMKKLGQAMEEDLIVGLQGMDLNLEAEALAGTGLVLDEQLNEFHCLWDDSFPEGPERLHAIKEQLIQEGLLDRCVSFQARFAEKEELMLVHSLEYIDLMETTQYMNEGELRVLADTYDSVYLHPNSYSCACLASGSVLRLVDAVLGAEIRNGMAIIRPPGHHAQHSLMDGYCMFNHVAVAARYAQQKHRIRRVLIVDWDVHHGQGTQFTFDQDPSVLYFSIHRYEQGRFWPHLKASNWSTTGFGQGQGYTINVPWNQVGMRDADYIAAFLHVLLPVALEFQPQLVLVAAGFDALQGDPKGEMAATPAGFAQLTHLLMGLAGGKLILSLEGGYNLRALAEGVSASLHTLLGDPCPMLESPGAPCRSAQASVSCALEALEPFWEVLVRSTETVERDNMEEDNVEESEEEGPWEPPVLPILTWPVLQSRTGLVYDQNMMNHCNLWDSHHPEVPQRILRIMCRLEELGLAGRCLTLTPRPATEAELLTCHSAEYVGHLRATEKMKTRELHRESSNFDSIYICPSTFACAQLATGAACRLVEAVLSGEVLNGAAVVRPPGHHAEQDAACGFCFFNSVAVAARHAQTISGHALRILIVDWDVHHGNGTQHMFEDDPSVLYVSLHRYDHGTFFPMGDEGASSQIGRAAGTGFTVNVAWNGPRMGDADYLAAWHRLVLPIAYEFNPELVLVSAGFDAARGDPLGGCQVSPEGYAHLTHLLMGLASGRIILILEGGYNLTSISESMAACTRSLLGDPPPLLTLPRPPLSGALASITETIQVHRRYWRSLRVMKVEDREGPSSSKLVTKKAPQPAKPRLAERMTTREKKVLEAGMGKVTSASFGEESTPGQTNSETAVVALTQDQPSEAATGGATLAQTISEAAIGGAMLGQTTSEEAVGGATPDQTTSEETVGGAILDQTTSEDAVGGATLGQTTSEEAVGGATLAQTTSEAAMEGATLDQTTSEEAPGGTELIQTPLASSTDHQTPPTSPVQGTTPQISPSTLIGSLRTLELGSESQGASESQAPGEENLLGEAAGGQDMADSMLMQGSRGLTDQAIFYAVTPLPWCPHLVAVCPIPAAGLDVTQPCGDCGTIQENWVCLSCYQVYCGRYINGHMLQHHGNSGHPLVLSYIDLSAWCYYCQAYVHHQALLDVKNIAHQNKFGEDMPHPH
Kind of series: rHDAC6 enzymatic assay (recombinant FLAG-HDAC6). Type of series: biochemical. The following applies: FLAG-HDAC6 from HEK293; 10 μM Ac-NH-GGK(Ac)-AMC, 3 h at 30° C.; read-out: rHDAC6 [pIC50] (converted).
Text: as §1, §2, §3

The nature of series [3]: Cellular cytotoxicity assay (Alamar Blue/Resazurin), A549. The following applies: human, A549 cells; A549, 72 hours incubation, Resazurin; read-out: A549 Cytotoxicity [pIC50] (converted). Type of series: cell-based. As to the method:
(§4) The anti-proliferative activity of the compounds as described herein, is evaluated with various solid and hematological cancer cell lines using the Alamar Blue (Resazurin) cell viability assay (O'Brien et al, Eur J Biochem 267, 5421-5426, 2000). Resazurin is reduced to the fluorescent resorufin by cellular dehydrogenase activity, correlating with viable, proliferating cells. Test compounds are dissolved as 20 mM solutions in dimethylsulfoxide (DMSO) and subsequently diluted in semi-logarithmic steps. The cancer cell lines are seeded into 96 well flat bottom plates at respective cell densities in a volume of 200 μl per well to allow continuous proliferation during the experiment. 24 hours after seeding 1 μl each of the compound dilutions is added into each well of the 96 well plate. Wells containing untreated control cells are filled with 200 μl DMEM medium containing 0.5% v:v DMSO. The cells are then incubated with the substances for 72 hours at 37° C. in a humidified atmosphere containing 5% carbon dioxide. To determine the viability of the cells, 20 μl of a Resazurin solution (Sigma; 90 mg/l) are added. After 4 hours incubation at 37° C. the fluorescence is measured at an extinction of 544 nm and an emission of 590 nm. For the calculation of the cell viability the emission value from untreated cells is set as 100% viability and the emission rates of treated cells are set in relation to the values of untreated cells. Viabilities are expressed as % values. The corresponding pIC50 values of the compounds for cytotoxic activity are determined from the concentration-effect curves by means of non-linear regression.

The target of series [4] is T3, rHDAC3 (Homo sapiens, UniProt O15379).
T3 construct: FLAG; made in house; host or cells: baculovirus-infected Sf21 insect cells
Put plainly: rHDAC3 enzymatic assay (recombinant FLAG-HDAC3). The format is biochemical. The following applies: FLAG-HDAC3 from insect cells; 6 μM Ac-NH-GGK(Ac)-AMC, 2 h at 30° C.; read-out: rHDAC3 [pIC50] (converted).
Text: as §1, §2, §3

Series [5] is described as follows: Cellular cytotoxicity assay (Alamar Blue/Resazurin), HeLa. Type of series: cell-based. The following applies: human, HeLa cells, 72 hours incubation, Resazurin, read-out: HeLa Cytotoxicity [pIC50] (converted). The protocol:
as §4

The target in series [6] is T4, rHDAC8 (Homo sapiens, UniProt Q9BY41).
T4 construct: FLAG; made in house; host or cells: baculovirus-infected Sf21 insect cells
T4 sequence (Q9BY41 1-377): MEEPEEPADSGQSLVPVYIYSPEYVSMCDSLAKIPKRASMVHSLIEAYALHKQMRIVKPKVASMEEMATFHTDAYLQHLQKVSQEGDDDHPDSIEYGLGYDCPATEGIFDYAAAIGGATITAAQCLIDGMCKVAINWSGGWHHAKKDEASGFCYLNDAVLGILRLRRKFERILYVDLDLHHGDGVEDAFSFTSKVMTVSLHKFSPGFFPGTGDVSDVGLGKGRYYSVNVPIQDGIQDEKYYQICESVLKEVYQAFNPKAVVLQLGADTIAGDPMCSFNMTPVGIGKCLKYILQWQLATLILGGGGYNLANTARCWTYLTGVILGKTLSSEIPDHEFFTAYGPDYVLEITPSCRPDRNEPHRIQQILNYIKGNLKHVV
Kind of series: rHDAC8 enzymatic assay (recombinant FLAG-HDAC8). Type of series: biochemical. The following applies: FLAG-HDAC8 from insect cells; 50 μM Ac-RHK(Ac)K(Ac)-AMC, 3 h at 30° C.; read-out: rHDAC8 [pIC50] (converted).
Text: as §1, §2, §3

Where a name gives a salt, the structure may show the parent alone.

T1 sequence (Q13547 whole entry): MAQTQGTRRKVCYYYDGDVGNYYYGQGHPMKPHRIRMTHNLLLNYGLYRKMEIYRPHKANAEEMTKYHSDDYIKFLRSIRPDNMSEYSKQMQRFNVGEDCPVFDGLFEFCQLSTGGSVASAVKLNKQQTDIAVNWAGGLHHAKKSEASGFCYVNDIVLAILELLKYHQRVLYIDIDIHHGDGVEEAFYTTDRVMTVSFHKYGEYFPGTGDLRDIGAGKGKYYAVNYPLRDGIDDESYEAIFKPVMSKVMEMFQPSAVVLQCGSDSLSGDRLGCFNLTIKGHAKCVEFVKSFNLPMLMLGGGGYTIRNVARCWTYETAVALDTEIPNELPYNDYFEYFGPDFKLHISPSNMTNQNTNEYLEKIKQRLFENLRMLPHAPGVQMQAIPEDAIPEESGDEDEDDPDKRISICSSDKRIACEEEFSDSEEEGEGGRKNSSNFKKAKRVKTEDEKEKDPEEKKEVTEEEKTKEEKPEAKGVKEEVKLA
T3 sequence (O15379 whole entry): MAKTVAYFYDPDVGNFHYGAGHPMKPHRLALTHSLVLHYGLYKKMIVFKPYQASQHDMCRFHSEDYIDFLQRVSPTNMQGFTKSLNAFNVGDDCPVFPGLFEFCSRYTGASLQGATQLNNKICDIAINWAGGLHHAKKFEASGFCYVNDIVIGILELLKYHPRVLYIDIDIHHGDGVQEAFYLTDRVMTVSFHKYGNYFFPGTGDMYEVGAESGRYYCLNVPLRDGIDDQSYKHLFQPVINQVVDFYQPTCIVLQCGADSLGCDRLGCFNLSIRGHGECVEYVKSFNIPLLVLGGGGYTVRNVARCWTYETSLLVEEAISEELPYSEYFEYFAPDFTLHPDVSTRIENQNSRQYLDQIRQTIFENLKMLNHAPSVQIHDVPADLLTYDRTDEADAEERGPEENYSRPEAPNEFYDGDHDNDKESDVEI
T3 sequence (Q9Y618 whole entry partner): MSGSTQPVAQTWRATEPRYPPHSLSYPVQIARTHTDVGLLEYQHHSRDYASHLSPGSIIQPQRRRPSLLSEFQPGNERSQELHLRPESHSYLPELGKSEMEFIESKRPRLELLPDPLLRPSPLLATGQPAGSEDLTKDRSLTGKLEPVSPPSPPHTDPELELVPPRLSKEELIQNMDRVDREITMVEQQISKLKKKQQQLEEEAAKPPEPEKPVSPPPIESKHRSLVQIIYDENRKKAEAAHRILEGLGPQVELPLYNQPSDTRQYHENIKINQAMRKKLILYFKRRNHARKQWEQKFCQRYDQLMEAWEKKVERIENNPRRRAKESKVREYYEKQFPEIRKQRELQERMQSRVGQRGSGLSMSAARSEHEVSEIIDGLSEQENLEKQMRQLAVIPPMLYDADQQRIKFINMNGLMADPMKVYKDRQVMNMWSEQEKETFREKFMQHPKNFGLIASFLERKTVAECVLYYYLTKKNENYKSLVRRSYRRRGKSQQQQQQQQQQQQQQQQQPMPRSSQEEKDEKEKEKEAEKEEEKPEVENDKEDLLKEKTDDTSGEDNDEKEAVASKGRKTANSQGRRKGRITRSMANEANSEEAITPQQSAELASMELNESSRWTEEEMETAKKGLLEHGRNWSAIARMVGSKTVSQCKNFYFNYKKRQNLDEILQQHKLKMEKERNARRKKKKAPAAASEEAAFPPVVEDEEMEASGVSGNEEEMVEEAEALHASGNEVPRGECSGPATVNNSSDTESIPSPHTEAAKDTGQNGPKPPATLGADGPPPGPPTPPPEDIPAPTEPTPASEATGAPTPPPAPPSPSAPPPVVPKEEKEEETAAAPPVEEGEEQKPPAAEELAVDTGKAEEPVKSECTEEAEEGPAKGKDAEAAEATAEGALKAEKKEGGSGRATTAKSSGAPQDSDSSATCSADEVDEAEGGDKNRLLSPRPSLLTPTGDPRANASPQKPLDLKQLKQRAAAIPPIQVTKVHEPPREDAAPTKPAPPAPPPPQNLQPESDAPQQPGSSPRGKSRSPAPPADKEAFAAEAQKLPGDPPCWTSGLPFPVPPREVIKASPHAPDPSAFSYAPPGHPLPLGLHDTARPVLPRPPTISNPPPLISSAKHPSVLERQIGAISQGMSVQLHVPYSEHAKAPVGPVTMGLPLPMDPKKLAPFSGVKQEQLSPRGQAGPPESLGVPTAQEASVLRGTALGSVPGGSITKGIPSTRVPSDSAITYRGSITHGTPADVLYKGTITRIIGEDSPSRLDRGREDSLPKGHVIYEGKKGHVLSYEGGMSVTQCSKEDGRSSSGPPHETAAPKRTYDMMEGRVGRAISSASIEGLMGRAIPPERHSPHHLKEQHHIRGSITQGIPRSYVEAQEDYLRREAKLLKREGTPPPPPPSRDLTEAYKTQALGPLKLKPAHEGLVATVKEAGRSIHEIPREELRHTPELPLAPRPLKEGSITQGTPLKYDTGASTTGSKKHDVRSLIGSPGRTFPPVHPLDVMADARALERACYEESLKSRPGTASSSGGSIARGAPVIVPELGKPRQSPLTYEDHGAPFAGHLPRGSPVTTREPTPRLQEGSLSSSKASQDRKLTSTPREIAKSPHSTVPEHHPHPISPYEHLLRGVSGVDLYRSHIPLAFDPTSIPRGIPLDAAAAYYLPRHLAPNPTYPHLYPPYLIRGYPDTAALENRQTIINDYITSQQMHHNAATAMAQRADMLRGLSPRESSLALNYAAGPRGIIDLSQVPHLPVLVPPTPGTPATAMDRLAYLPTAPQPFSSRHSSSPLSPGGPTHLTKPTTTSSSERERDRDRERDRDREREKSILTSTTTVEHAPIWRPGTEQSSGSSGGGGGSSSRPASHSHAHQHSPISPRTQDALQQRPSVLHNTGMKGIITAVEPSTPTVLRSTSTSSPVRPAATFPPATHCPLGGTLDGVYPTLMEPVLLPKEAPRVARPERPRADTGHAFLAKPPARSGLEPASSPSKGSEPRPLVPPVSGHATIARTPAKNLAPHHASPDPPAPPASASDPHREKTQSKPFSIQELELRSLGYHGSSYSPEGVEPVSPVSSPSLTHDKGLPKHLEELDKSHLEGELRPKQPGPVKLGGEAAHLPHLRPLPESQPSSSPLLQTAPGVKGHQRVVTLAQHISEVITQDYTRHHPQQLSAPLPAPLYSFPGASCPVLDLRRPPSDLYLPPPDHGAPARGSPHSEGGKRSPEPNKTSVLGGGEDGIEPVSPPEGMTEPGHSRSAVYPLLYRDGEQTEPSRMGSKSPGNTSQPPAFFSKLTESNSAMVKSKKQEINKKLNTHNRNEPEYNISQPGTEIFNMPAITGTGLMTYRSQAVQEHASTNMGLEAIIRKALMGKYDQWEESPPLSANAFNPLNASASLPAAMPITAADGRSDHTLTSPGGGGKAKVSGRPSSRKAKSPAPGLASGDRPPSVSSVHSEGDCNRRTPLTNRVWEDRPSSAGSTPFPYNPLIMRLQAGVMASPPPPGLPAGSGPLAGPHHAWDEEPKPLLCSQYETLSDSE

Molecule `O=C(NO)c1ccc2c(c1)CN(C(=O)c1ccc3ncccc3c1)C2` [Example 28, N-Hydroxy-2-(quinolin-6-ylcarbonyl)isoindoline-5-carboxamide] gave a melting point of 208 to 210 °C.
Turning to `Cc1nccn1CCC(=O)N1CCc2ccc(C(=O)NO)cc2C1.Cl`, the melting point is 63 °C.
Take `O=C(NO)c1ccc2c(c1)CCN(C(=O)Cc1ccccn1)C2` [Example 2, N-Hydroxy-2-(pyridin-2-ylacetyl)-1,2,3,4-tetrahydroisoquinoline-6-carboxamide hydrochloride]: the IC50 was 10 to 100 µM in series [1] and 0.001 to 0.1 µM in series [2]. The IC50 at 72 h in series [3] is over 100 µM.
`O=C(NO)c1ccc2c(c1)CN(C(=O)c1ccc3ccccc3n1)C2` [Example 27, N-Hydroxy-2-(quinolin-2-ylcarbonyl)isoindoline-5-carboxamide] returned a melting point of 162 to 166 °C.
For `O=C(NO)c1ccc2c(c1)CN(C(=O)c1cc3ccccc3cn1)C2` [Example 29, N-Hydroxy-2-(isoquinolin-3-ylcarbonyl)isoindoline-5-carboxamide], the melting point was 208 to 210 °C.
`O=C(NO)c1ccc2c(c1)CCN(C(=O)Cc1ccccn1)C2` [Example 14, N-Hydroxy-2-(pyridin-2-ylacetyl)-1,2,3,4-tetrahydroisoquinoline-6-carboxamide hydrochloride]: the results for the IC50 in series [4] and in series [6] were 10 to 100 µM and 1 to 10 µM, respectively. The IC50 at 72 h in series [5] was 1 to 100 µM.
Take `CC(=O)N1CCc2ccc(C(=O)NO)cc2C1` [Example 25, 2-Acetyl-N-hydroxy-1,2,3,4-tetrahydroisoquinoline-7-carboxamide]: the melting point was 177 to 181 °C.

By melting point is commonly meant the temperature, or range, at which the solid turns liquid.
